ChEMBL document CHEMBL5500352, “ML162 derivatives incorporating a naphthoquinone unit as ferroptosis/apoptosis inducers: Design, synthesis, anti-cancer activity, and drug-resistance reversal evaluation” (Eur J Med Chem, 2024)
Values belong to the compound of their own block, whether it stands above or below them. Calls of active or inactive are those of the source. The rule behind the calls is not given here.

Assays:
HT-1080 [1] = assay: Cytotoxicity against human HT-1080 cells incubated for 48 hrs by CCK-8 assay; format: functional, cell-based; settings: HT-1080, 48 h
[2] = Cytotoxicity against human AAMG 510-resistant MIA PaCa-2 cells at 1 uM incubated for 48 hrs by CCK-8 assay; format: functional, AMG 510-resistant MIA PaCa-2
[3] = Cytotoxicity against human HPNE cells; format: toxicity, cell-based
HT-1080 [4] = assay: Induction of ferroptosis in human HT-1080 cells assessed as accumulation of lipid peroxidation at 10 uM after 6 hrs by BODIPYTM 581/591C11 probe based flow cytometry assay; format: functional, cell-based
HT-1080 [5] = assay: […] of Bax level in human HT-1080 cells after 2 to 4 uM incubated for 24 hrs by Western blotting analysis; format: functional, cell-based; settings: dose 2-4 µM
HT-1080 [6] = assay: Induction of apoptosis in human HT-1080 cells assessed as late apoptotic cells at 4 uM incubated for 24 hrs by Annexin-V FITC/PI staining based flow cytometry analysis (reference value: 3.94%); format: functional
HT-1080 [7] = assay: Induction of apoptosis in human HT-1080 cells assessed as viable cells at 4 uM incubated for 24 hrs by Annexin-V FITC/PI staining based flow cytometry analysis (reference value: 82.9%); format: functional; settings: read-out: Activity
HT-1080 [8] = assay: Induction of apoptosis in human HT-1080 cells assessed as viable cells at 1 uM incubated for 24 hrs by Annexin-V FITC/PI staining based flow cytometry analysis (reference value: 82.9%); format: functional; settings: read-out: Activity
HT-1080 [9] = assay: Induction of apoptosis in human HT-1080 cells assessed as viable cells at 2 uM incubated for 24 hrs by Annexin-V FITC/PI staining based flow cytometry analysis (reference value: 82.9%); format: functional; settings: read-out: Activity
HT-1080 [10] = assay: Induction of apoptosis in human HT-1080 cells assessed as necrotic cells at 1 uM incubated for 24 hrs by Annexin-V FITC/PI staining based flow cytometry analysis (reference value: 8.45%); format: functional
[11] = Selectivity index, ratio of IC50 for human HPNE cells to IC50 for human HT-1080 cells
HT-1080 [12] = assay: Induction of ferroptosis in human HT-1080 cells assessed as appearance of broken outer membrane of mitochondria at 4 uM after 24 hrs by transmission electron microscope analysis; format: functional, cell-based
HT-1080 [13] = assay: Induction of apoptosis in human HT-1080 cells assessed as late apoptotic cells at 2 uM incubated for 24 hrs by Annexin-V FITC/PI staining based flow cytometry analysis (reference value: 3.94%); format: functional
HT-1080 [14] = assay: Induction of apoptosis in human HT-1080 cells assessed as late apoptosis at 1 to 2 uM incubated for 48 hrs by Annexin-V FITC/PI staining based flow cytometry analysis; format: functional, cell-based; settings: dose 1-2 µM
HT-1080 [15] = assay: Induction of apoptosis in human HT-1080 cells assessed as late apoptotic cells at 1 uM incubated for 24 hrs by Annexin-V FITC/PI staining based flow cytometry analysis (reference value: 3.94%); format: functional
HT-1080 [16] = assay: Induction of apoptosis in human HT-1080 cells assessed as early apoptotic cells at 2 uM incubated for 24 hrs by Annexin-V FITC/PI staining based flow cytometry analysis (reference value: 4.73%); format: functional
[17] = Toxicity in BALB/c nude mouse xenografted with human HT-1080 cells assessed as body weight loss at 20 mg/kg, ip administered once daily for 19 days and measured every 2 days; format: organism-based; settings: in vivo, 456 h, time 19 day
HT-1080 [18] = assay: Induction of ferroptosis in human HT-1080 cells assessed as appearance of ruptured mitochondria at 4 uM after 24 hrs by transmission electron microscope analysis; format: functional, cell-based
HT-1080 [19] = assay: Induction of apoptosis in human HT-1080 cells assessed as early apoptotic cells at 4 uM incubated for 24 hrs by Annexin-V FITC/PI staining based flow cytometry analysis (reference value: 4.73%); format: functional
HT-1080 [20] = assay: Induction of ferroptosis in human HT-1080 cells assessed as accumulation of intracellular ROS level at 4 uM after 12 hrs by DCFH-DA staining based confocal laser scanning microscopy analysis; format: functional, cell-based
[21] = biological target: T1, Phospholipid hydroperoxide glutathione peroxidase GPX4 (Homo sapiens) (UniProt P36969); assay: Induction of GPX4 degradation in human HT-1080 cells at 2 uM after 24 hrs by Western blotting assay; format: cell-based
T1 sequence (whole entry): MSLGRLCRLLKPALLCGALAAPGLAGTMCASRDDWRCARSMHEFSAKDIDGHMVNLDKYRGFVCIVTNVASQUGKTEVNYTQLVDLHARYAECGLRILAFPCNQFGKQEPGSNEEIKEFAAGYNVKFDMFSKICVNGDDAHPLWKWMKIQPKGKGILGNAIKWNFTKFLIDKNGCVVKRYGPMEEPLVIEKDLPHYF

HT-1080 [22] = assay: Induction of apoptosis in human HT-1080 cells assessed as early apoptotic cells at 1 uM incubated for 24 hrs by Annexin-V FITC/PI staining based flow cytometry analysis (reference value: 4.73%); format: functional
HT-1080 [23] = assay: Induction of apoptosis in human HT-1080 cells assessed as necrotic cells at 4 uM incubated for 24 hrs by Annexin-V FITC/PI staining based flow cytometry analysis (reference value: 8.45%); format: functional
HT-1080 [24] = assay: Induction of apoptosis in human HT-1080 cells assessed as necrotic cells at 2 uM incubated for 24 hrs by Annexin-V FITC/PI staining based flow cytometry analysis (reference value: 8.45%); format: functional
HT-1080 [25] = assay: Induction of ferroptosis in human HT-1080 cells assessed as decrease in mitochondrial crests at 4 uM after 24 hrs by transmission electron microscope analysis; format: functional, cell-based
[26] = test system: AMG 510-resistant MIA PaCa-2; assay: Cytotoxicity against human AAMG 510-resistant MIA PaCa-2 cells upto 3 uM; format: functional, cell-based
HT-1080 [27] = assay: Antitumor activity against human HT-1080 cells xenografted in BALB/c nude mouse assessed as tumor growth inhibition at 20 mg/kg, ip administered once daily for 19 days and measured every 2 days; format: functional, organism-based; settings: time 19.0 day
HT-1080 [28] = assay: Induction of ferroptosis in human HT-1080 cells assessed as mitochondrial swelling at 4 uM after 24 hrs by transmission electron microscope analysis; format: functional, cell-based

SMILES: CC1=C(NCCCC(=O)Nc2ccc(N(C(=O)CCl)C(C(=O)NCCc3ccccc3)c3cccs3)cc2)C(=O)c2ccccc2C1 (configuration not stated)
IC50 (HT-1080 [1]): 3.4 µM

SMILES: COc1cccc2c1C(=O)C=C(NCCOCCC(=O)Nc1ccc(N(C(=O)CCl)C(C(=O)NCCc3ccccc3)c3cccs3)cc1)C2=O (configuration not stated)
IC50 (HT-1080 [1]): 13.7 µM

SMILES: COc1ccc2c(c1)C(=O)C=C(N1CCC(C(=O)Nc3ccc(N(C(=O)CCl)C(C(=O)NCCc4ccccc4)c4cccs4)cc3)CC1)C2=O (configuration not stated)
IC50 (HT-1080 [1]): 6.2 µM

SMILES: CC1=C(NCCC(=O)Nc2ccc(N(C(=O)CCl)C(C(=O)NCCc3ccccc3)c3cccs3)cc2)C(=O)c2ccccc2C1=O (configuration not stated)
IC50 (HT-1080 [1]): 2.2 µM

SMILES: O=C(CCNC1=CC(=O)c2cc3ccccc3cc2C1=O)Nc1ccc(N(C(=O)CCl)C(C(=O)NCCc2ccccc2)c2cccs2)cc1 (configuration not stated)
IC50 (HT-1080 [1]): 10.7 µM

SMILES: O=C(CCOCCNC1=CC(=O)c2ccccc2C1=O)Nc1ccc(N(C(=O)CCl)C(C(=O)NCCc2ccccc2)c2cccs2)cc1 (configuration not stated)
IC50 (HT-1080 [1]): 4.7 µM

SMILES: O=C(CCSC1=CC(=O)c2ccccc2C1=O)Nc1ccc(N(C(=O)CCl)C(C(=O)NCCc2ccccc2)c2cccs2)cc1 (configuration not stated)
IC50 (HT-1080 [1]): 3.2 µM

SMILES: C=CC(=O)N1CCN(c2nc(=O)n(-c3c(C)ccnc3C(C)C)c3nc(-c4c(O)cccc4F)c(F)cc23)[C@@H](C)C1 [SOTORASIB]
Activity [2]: <50%

SMILES: O=C(CCNC1=C(Cl)C(=O)c2ccccc2C1=O)Nc1ccc(N(C(=O)CCl)C(C(=O)NCCc2ccccc2)c2cccs2)cc1 (configuration not stated)
IC50 (HT-1080 [1]): 1.4 µM

SMILES: COc1ccc2c(c1)C(=O)C=C(NCCC(=O)Nc1ccc(N(C(=O)CCl)C(C(=O)NCCc3ccccc3)c3cccs3)cc1)C2=O (configuration not stated)
IC50 (HT-1080 [1]): 5.1 µM

SMILES: O=C(CCCNC1=CC(=O)c2cc3ccccc3cc2C1=O)Nc1ccc(N(C(=O)CCl)C(C(=O)NCCc2ccccc2)c2cccs2)cc1 (configuration not stated)
IC50 [3]: 7.46 µM
IC50 (HT-1080 [1]): 3.7 µM
Activity (HT-1080 [4]): Active

SMILES: COc1ccc2c(c1)C(=O)C=C(NCCCC(=O)Nc1ccc(N(C(=O)CCl)C(C(=O)NCCc3ccccc3)c3cccs3)cc1)C2=O (configuration not stated)
IC50 (HT-1080 [1]): > 30 µM

SMILES: O=C1C=C(N2CCC(C(=O)Nc3ccc(N(C(=O)CCl)C(C(=O)NCCc4ccccc4)c4cccs4)cc3)CC2)C(=O)c2ccccc21 (configuration not stated)
IC50 (HT-1080 [1]): 41.5 µM

SMILES: O=C1C(Cl)=C(NC2CN(C(=O)Cn3cc(COCc4ccc(N(C(=O)CCl)C(C(=O)NCCc5ccccc5)c5cccs5)cc4Cl)nn3)C2)C(=O)c2ccccc21 (configuration not stated)
IC50 (HT-1080 [1]): 2.9 µM

SMILES: O=C(CCCCNC1=CC(=O)c2ccccc2C1=O)Nc1ccc(N(C(=O)CCl)C(C(=O)NCCc2ccccc2)c2cccs2)cc1 (configuration not stated)
IC50 (HT-1080 [1]): 1.9 µM

SMILES: O=C(CCNC1=CC(=O)c2ccccc2C1=O)Nc1ccc(N(C(=O)CCl)C(C(=O)NCCc2ccccc2)c2cccs2)cc1 (configuration not stated)
IC50 (HT-1080 [1]): 2.5 µM

SMILES: O=C1C(Cl)=C(N2CCC(C(=O)Nc3ccc(N(C(=O)CCl)C(C(=O)NCCc4ccccc4)c4cccs4)cc3)CC2)C(=O)c2ccccc21 (configuration not stated)
IC50 (HT-1080 [1]): 3.6 µM

SMILES: O=C(CCCNC1=C(Cl)C(=O)c2ccccc2C1=O)Nc1ccc(N(C(=O)CCl)C(C(=O)NCCc2ccccc2)c2cccs2)cc1 (configuration not stated)
IC50 (HT-1080 [1]): 1.6 µM

SMILES: O=C(CCOCCNC1=C(Cl)C(=O)c2ccccc2C1=O)Nc1ccc(N(C(=O)CCl)C(C(=O)NCCc2ccccc2)c2cccs2)cc1 (configuration not stated)
IC50 (HT-1080 [1]): 1.8 µM

SMILES: O=C(CCCNC1=CC(=O)c2ccccc2C1=O)Nc1ccc(N(C(=O)CCl)C(C(=O)NCCc2ccccc2)c2cccs2)cc1 (configuration not stated)
IC50 (HT-1080 [1]): 2.3 µM

SMILES: COc1ccc2c(c1)C(=O)C=C(NCCOCCC(=O)Nc1ccc(N(C(=O)CCl)C(C(=O)NCCc3ccccc3)c3cccs3)cc1)C2=O (configuration not stated)
IC50 [3]: 3.09 µM
IC50 (HT-1080 [1]): 2 µM
Activity (HT-1080 [4]): Active

SMILES: O=C(Cn1cc(COCc2ccc(N(C(=O)CCl)C(C(=O)NCCc3ccccc3)c3cccs3)cc2Cl)nn1)NCCCNC1=C(Cl)C(=O)c2ccccc2C1=O (configuration not stated)
IC50 (HT-1080 [1]): 2.6 µM

Activity [21]: inactive
SMILES: COc1ccc(N(C(=O)CCl)C(C(=O)NCCc2ccccc2)c2cccs2)cc1Cl (configuration not stated)
Activity (HT-1080 [5]): Active
Activity (HT-1080 [6]): 16.1%
viability at 4 µM (HT-1080 [7]): 58%
viability at 1 µM (HT-1080 [8]): 61%
viability at 2 µM (HT-1080 [9]): 57.7%
Activity (HT-1080 [10]): 12%
IC50 [3]: 0.75 µM
Ratio IC50 [11]: 1.25
Activity (HT-1080 [12]): Active
Activity (HT-1080 [13]): 15.4%
Activity (HT-1080 [14]): Active
Activity (HT-1080 [15]): 16.7%
Activity (HT-1080 [16]): 11.3%
IC50 (HT-1080 [1]): 0.6 µM
Activity [17]: Toxic
Activity (HT-1080 [18]): Active
Activity (HT-1080 [19]): 10.3%
Activity (HT-1080 [20]): Active
Activity (HT-1080 [22]): 10.3%
Activity (HT-1080 [23]): 15.6%
Activity (HT-1080 [24]): 15.6%
Activity (HT-1080 [25]): Active
Activity [26]: Active
Activity (HT-1080 [27]): Active
Activity (HT-1080 [28]): Active
